Source: US10577361B2, “Dopamine D3 receptor antagonists having a morpholine moiety” (Indivior UK Limited, priority 2015, dated 2020)

What was measured:
[1] = molecular target: human dopamine type 3 receptor (hD3) (Homo sapiens (Human), UniProt P35462); test: [3H]-Spiperone binding assay at hD3 recombinant receptor (CHO-hD3 membranes); details: pKi only estimated to be accurate to about ±0.3-0.5
Description: [^3H]-Spiperone Binding Assay at hD3 and hD4 recombinant receptors CHO cells transiently transfected with human dopamine type 3 or 4 receptors (CHO-hD3 or CHO-hD4, respectively), were re-suspended in 20 mM HEPES, 2 mM EDTA (pH 7.4), homogenised and centrifuged at 40,000 g (20 min, 4° C.). After re-suspension, homogenization and centrifugation as above, the final pellet was re-suspended in 20 mM HEPES, 100 mM NaCl, 10 mM MgCl2, 1 mM EDTA (pH 7.4) and aliquots were kept at −80° C. [^3H]-Spiperone Binding experiments were performed in 96 deep-well polypropylene plates in 50 mM Tris/HCl, 120 mM NaCl, 5 mM KCl, 5 mM MgCl2 (pH 7.4). Compounds of invention were serially diluted in DMSO at 100 fold final concentrations in the assay (1% DMSO final in the assay). Displacement was performed in the presence of 0.3 nM [^3H]-Spiperone. The reaction was initiated by the addition of membrane suspension (4 μg and 12 μg of protein for CHO-hD3- and CHO-hD4 membranes, respectively) and lasted for 90 or 100 min (for hD3 or hD4 membranes, respectively) at 23° C. in a final volume of 500 μl. Non specific binding (NSB) was determined in the presence of 1 μM Spiperone. The binding reaction was stopped by rapid filtration through GF/B filterplates pre-soaked in 0.5% polyetylenimmine (PEI) using a Packard cell harvester. After washing with ice-cold 0.9% NaCl, the plate was left to dry before the addition of Microscint 20 ([…], PerkinElmer). Radioactivity was counted with a TopCount (PerkinElmer). Data were analysed by non-linear regression analysis using GraphPad Prism 5.0 (GraphPad Software). Saturation binding experiments were performed similar to the competition binding experiments using a radioligand concentrations ranging from 0.015 to 4.0 nM. […] Characterization of the human dopamine D3 receptor expressed in transfected cell lines.

[2] = molecular target: human dopamine receptor type 2, long variant (hD2L) (Homo sapiens (Human), UniProt P14416); test: [3H]-Spiperone binding assay at hD2 recombinant receptor (CHO-Gα16-hD2L membranes)
Description: [^3H]-Spiperone Binding Assay at hD2 Recombinant Receptor CHO cells stably expressing human dopamine receptor type 2, long variant (hD2L), coupled to Gα16 protein (CHO-Gα16-hD2L) were re-suspended in 20 mM HEPES, 2 mM EDTA (pH 7.4), homogenised and centrifuged at 40,000 g (20 min, 4° C.). After re-suspension, homogenization and centrifugation as above, the final pellet was re-suspended in 20 mM HEPES, 100 mM NaCl, 10 mM MgCl2, 1 mM EDTA (pH 7.4) and aliquots were kept at −80° C. [^3H]-Spiperone Binding experiments were performed in 96 deep-well polypropylene plates in 50 mM Tris/HCl, 120 mM NaCl, 5 mM KCl, 5 mM MgCl2 (pH 7.4). […] Displacement was performed in the presence of 0.08 nM [^3H]-Spiperone. The reaction was initiated by the addition of membrane suspension (2 μg of protein for CHO-hD2 membranes) and lasted for 120 min at 23° C. in a final volume of 1000 μl. Non specific binding (NSB) was determined in the presence of 0.1 μM Spiperone. The binding reaction was stopped by rapid filtration through GF/B filterplates pre-soaked in 0.5% polyetylenimmine (PEI) using a Packard cell harvester. After washing with ice-cold 0.9% NaCl, the plate was left to dry before the addition of Microscint 20 (50 μl/well, PerkinElmer). Radioactivity was counted with a TopCount (PerkinElmer). […] Saturation binding experiments were performed similar to the competition binding experiments using a radioligand concentrations ranging from 0.011 to 3.0 nM. […] Is Clozapine selective for the dopamine D4 receptor? […] Real-time analysis of dopamine: antagonist interactions at recombinant human D2long receptor upon modulation of its activation state. Brit. J.

human dopamine type 3 receptor (hD3), sequence (P35462 whole entry): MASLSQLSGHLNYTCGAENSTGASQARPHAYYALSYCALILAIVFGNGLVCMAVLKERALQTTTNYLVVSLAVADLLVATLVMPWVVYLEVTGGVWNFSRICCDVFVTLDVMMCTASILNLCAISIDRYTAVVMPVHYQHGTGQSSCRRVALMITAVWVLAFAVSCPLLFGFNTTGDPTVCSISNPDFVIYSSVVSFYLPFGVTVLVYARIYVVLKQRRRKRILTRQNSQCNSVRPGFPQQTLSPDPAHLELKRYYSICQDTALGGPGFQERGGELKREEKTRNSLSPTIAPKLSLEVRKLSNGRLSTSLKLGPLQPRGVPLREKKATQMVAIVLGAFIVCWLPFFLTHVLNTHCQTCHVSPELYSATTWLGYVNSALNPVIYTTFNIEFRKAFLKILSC

SMILES | D3 p Ki [1] | D2 p Ki [2]
Cn1c(SCCCN2CCOC(c3ccc(C(F)(F)F)cc3)C2)nnc1-c1ccc(C(N)=O)cc1 (single isomer, unassigned) [Example 13, 4-[4-methyl-5-({3-[(2R or 2S)-2-[4-(trifluoromethyl)phenyl]morpholin-4-yl]propyl}sulfanyl)-4H-1,2,4-triazol-3-yl]benzamide] | 7.94 | 4.86
Cn1c(SCCCN2CCOC(c3ccc(C(F)(F)F)cc3)C2)nnc1-c1ccc(-c2ncco2)cc1 (single isomer, unassigned) [Example 15, (2S or 2R)-4-[3-({4-methyl-5-[4-(1,3-oxazol-2-yl)phenyl]-4H-1,2,4-triazol-3-yl}sulfanyl)propyl]-2-[4-(trifluoromethyl)phenyl]morpholine] | 6.36 | 4.81
Cn1c(SCCCN2CCOC(c3ccc(C(F)(F)F)cc3)C2)nnc1-c1ccc(-c2ncco2)cc1 (single isomer, unassigned) [Example 16, (2R or 2S)-4-[3-({4-methyl-5-[4-(1,3-oxazol-2-yl)phenyl]-4H-1,2,4-triazol-3-yl}sulfanyl)propyl]-2-[4-(trifluoromethyl)phenyl]morpholine] | 8.23 | 5.28
Cn1c(SCCCN2CCOC(c3ccc(C(F)(F)F)cc3)C2)nnc1-c1ccc(C(N)=O)cc1 (centres unmarked) [Example 11, 4-{4-methyl-5-[(3-{2-[4-(trifluoromethyl)phenyl]-morpholin-4-yl}propyl)sulfanyl]-4H-1,2,4-triazol-3-yl}benzamide] | 7.46 | 4.96
Cn1c(SCCCN2CCOC(c3ccc(C(F)(F)F)cc3)C2)nnc1-c1ccc(-c2ncco2)cc1 (centres unmarked) [Example 14, 4-[3-({4-methyl-5-[4-(1,3-oxazol-2-yl)phenyl]-4H-1,2,4-triazol-3-yl}sulfanyl)propyl]-2-[4-(trifluoromethyl)phenyl]morpholine] | 8.31 | 5.83
Cn1c(SCCCN2CCOC(c3ccc(C(F)(F)F)cc3)C2)nnc1-c1cccnc1 (centres unmarked) [Example 18, 4-(3-{[4-methyl-5-(pyridin-3-yl)-4H-1,2,4-triazol-3-yl]sulfanyl}propyl)-2-[4-(trifluoromethyl)phenyl]morpholine] | 6.77 | 4.83
Cn1c(SCCCN2CCOC(c3ccc(C(F)(F)F)cc3)C2)nnc1-c1cnccn1 (centres unmarked) [Example 19, 4-(3-{[4-methyl-5-(pyrazin-2-yl)-4H-1,2,4-triazol-3-yl]sulfanyl}propyl)-2-[4-(trifluoromethyl)phenyl]morpholine] | 6.76 | –
Cn1c(SCCCN2CCOC(c3ccc(C(F)(F)F)cc3)C2)nnc1-c1ccc(C(N)=O)nc1 (centres unmarked) [Example 20, 5-{4-methyl-5-[(3-{2-[4-(trifluoromethyl)phenyl]morpholin-4-yl}propyl)sulfanyl]-4H-1,2,4-triazol-3-yl}pyridine-2-carboxamide] | 7.45 | –
Cn1c(SCCCN2CCOC(c3ccc(C(F)(F)F)cc3)C2)nnc1-c1ccc(-n2cnnc2)cc1 (centres unmarked) [Example 21, 4-[3-({4-methyl-5-[4-(4H-1,2,4-triazol-4-yl)phenyl]-4H-1,2,4-triazol-3-yl}sulfanyl)propyl]-2-[4-(trifluoromethyl)phenyl]morpholine] | 6.9 | 5.04
Cn1c(SCCCN2CCOC(c3ccc(C(F)(F)F)cc3)C2)nnc1-c1ccc(C(N)=O)cn1 (centres unmarked) [Example 22, 6-{4-methyl-5-[(3-{2-[4-(trifluoromethyl)phenyl]morpholin-4-yl}propyl)sulfanyl]-4H-1,2,4-triazol-3-yl}pyridine-3-carboxamide] | 7 | 4.79
Cn1c(SCCCN2CCOC(c3ccc(C(F)(F)F)cc3)C2)nnc1-c1cccc(C(N)=O)c1 (centres unmarked) [Example 23, 3-{4-methyl-5-[(3-{2-[4-(trifluoromethyl)phenyl]morpholin-4-yl}propyl)sulfanyl]-4H-1,2,4-triazol-3-yl}benzamide] | 6.53 | 4.82
Cn1cccc1-c1nnc(SCCCN2CCOC(c3ccc(C(F)(F)F)cc3)C2)n1C (centres unmarked) [Example 24] | 6.9 | 5.18
Cn1c(SCCCN2CCOC(c3ccc(C(F)(F)F)cc3)C2)nnc1C1CCCCC1 (centres unmarked) [Example 25, 4-{3-[(5-cyclohexyl-4-methyl-4H-1,2,4-triazol-3-yl)sulfanyl]propyl}-2-[4-(trifluoromethyl)phenyl]morpholine] | 7.36 | 5.05
Cn1c(SCCCN2CCOC(c3ccc(C(F)(F)F)cc3)C2)nnc1-c1nccs1 (centres unmarked) [Example 26, 4-(3-{[4-methyl-5-(1,3-thiazol-2-yl)-4H-1,2,4-triazol-3-yl]sulfanyl}propyl)-2-[4-(trifluoromethyl)phenyl]morpholine] | 6.55 | 5.14
Cn1nccc1-c1nnc(SCCCN2CCOC(c3ccc(C(F)(F)F)cc3)C2)n1C (centres unmarked) [Example 27, 4-(3-{[4-methyl-5-(1-methyl-1H-pyrazol-5-yl)-4H-1,2,4-triazol-3-yl]sulfanyl}propyl)-2-[4-(trifluoromethyl)phenyl]morpholine] | 6.16 | <5

Next, values leading:

D3 p Ki [1] | D2 p Ki [2] | SMILES
6.95 | 5.06 | Cn1c(SCCCN2CCOC(c3ccc(C(F)(F)F)cc3)C2)nnc1-c1ccsc1 (centres unmarked) [Example 28]
7.79 | 4.91 | Cn1c(SCCCN2CCOC(c3ccc(C(F)(F)F)cc3)C2)nnc1-c1ccc(-c2nnco2)cc1 (centres unmarked) [Example 29, 4-[3-({4-methyl-5-[4-(1,3,4-oxadiazol-2-yl)phenyl]-4H-1,2,4-triazol-3-yl}sulfanyl)propyl]-2-[4-(trifluoromethyl)phenyl]morpholine]
7.63 | <5 | Cc1nc(-c2ccc(-c3nnc(SCCCN4CCOC(c5ccc(C(F)(F)F)cc5)C4)n3C)cc2)no1 (centres unmarked) [Example 30, 4-[3-({4-methyl-5-[4-(5-methyl-1,2,4-oxadiazol-3-yl)phenyl]-4H-1,2,4-triazol-3-yl}sulfanyl)propyl]-2-[4-(trifluoromethyl)phenyl]morpholine]
6.97 | 4.95 | Cn1c(SCCCN2CCOC(c3ccc(C(F)(F)F)cc3)C2)nnc1-c1ccc(C#N)cc1 (centres unmarked) [Example 31, 4-{4-methyl-5-[(3-{2-[4-(trifluoromethyl)phenyl]morpholin-4-yl}propyl)sulfanyl]-4H-1,2,4-triazol-3-yl}benzonitrile]
7.18 | 4.65 | CC(=O)c1ccc(-c2nnc(SCCCN3CCOC(c4ccc(C(F)(F)F)cc4)C3)n2C)cc1 (centres unmarked) [Example 32, 1-(4-{4-methyl-5-[(3-{2-[4-(trifluoromethyl)phenyl]morpholine-4-yl}propyl)sulfanyl]-4H-1,2,4-triazol-3-yl}phenyl)ethan-1-one]
7.06 | – | Cn1c(SCCCN2CCOC(c3ccc(C(F)(F)F)cc3F)C2)nnc1-c1ccc(C(N)=O)cc1 (centres unmarked) [Example 35]
6.17 | – | Cc1ccc(C2CN(CCCSc3nnc(-c4ocnc4C)n3C)CCO2)cc1 (centres unmarked) [Example 36, 4-(3-{[4-methyl-5-(4-methyl-1,3-oxazol-5-yl)-4H-1,2,4-triazol-3-yl]sulfanyl}propyl)-2-(4-methylphenyl)morpholine]
6.72 | – | Cc1ncoc1-c1nnc(SCCCN2CCOC(c3ccc(Br)cc3)C2)n1C (centres unmarked) [Example 38, 2-(4-bromophenyl)-4-(3-{[4-methyl-5-(4-methyl-1,3-oxazol-5-yl)-4H-1,2,4-triazol-3-yl]sulfanyl}propyl)morpholine]
